Source: patent US20260263550A1, “METHODS AND COMPOSITIONS FOR TREATING, PREVENTING, INHIBITING, AMELIORATING OR DELAYING THE ONSET OF OPHTHALMIC CONDITIONS” (Stealth BioTherapeutics Inc., priority 2021, published 2026)

Tests used:
[1] = tested on: iPSC-derived RPE cells from AMD donors; assay: Microarray analysis of gene expression on in vitro Bruch's membrane model; assay type: cell-based, human; conditions: AMD-derived RPE on nitrite-modified ECM, 10, 100, 1000 nM, 24 hours
Description: General. iPSC-derived RPE were generated from AMD patients (2 atrophic; 1 exudative) and patients with no history of AMD (n=3). To test the therapeutic efficacy of elamipretide and compound of Formula IIa, cell viability was analyzed on nitrite-modified extracellular matrix (ECM), a typical modification of aged Bruch's membrane, for 24 hrs. DNA microarrays were used to elucidate gene expression in AMD-derived RPE cultured on nitrite-modified ECM.
Microarray analysis. iPSC-derived RPE cells from AMD donors (n=3; 2 atrophic with GA, 1 exudative) were treated with drug (elamipretide or compound of Formula IIa) as described below and cultured on an in vitro Bruch's membrane model for 24 hours.
• AMD donors only (n=3 individual donors) • Cells treated with elamipretide (also referred to as “309” in the figures) at 10 nM, 100 nM and 1000 nM • Cells treated with compound of Formula IIa (also referred to as “146c” in the figures) at 10 nM, 100 nM, 1000 nM
Microarray studies using Affymetrix GeneChip Human Clariom™ S Assay were performed as described in Gong et al. (2020).

[2] = tested on: iPSC-derived RPE cells from AMD donors; assay: Measurement of mitochondrial function (Seahorse XF Cell Mito Stress Test); assay type: cell-based, human; conditions: 10, 100, 1000 nM, treatment began 24 hours prior to assay, FIGS. 8AA-8AL
Description: Measurement of mitochondrial function. Analysis of mitochondrial function was performed on live iPSC-derived RPE cells from AMD donors (n=3; 2 atrophic with GA, 1 exudative) treated with drug (elamipretide, compound of Formula IIa, or vehicle) as described below and iPSC-derived RPE cells from non-diseased controls (n=2) using the XFe96 Extracellular Flux Analyzer (Agilent Technologies, Santa Clara, California, www.agilent.com) and the Seahorse XF Cell Mito Stress Test (CMST) Kit (Agilent Technologies). iPSC-derived RPE cells were seeded onto a laminin-coated Seahorse XF plates and grown until confluent. Data were normalized by cell count. Drug treatments began 24 hours prior to assay. […]
Cells were stained with DAPI and counted by ImageJ software (National Institute of Health, Bethesda, Maryland, www.nih.gov). […] Oxygen consumption rate was detected under basal conditions followed by the sequential addition of oligomycin, carbonyl cyanide 4-(trifluoromethoxy) phenylhydrazone (FCCP), rotenone, and antimycin A. From these sequential additions, the following parameters can be derived: basal respiration, ATP production, maximal respiration, and spare respiratory capacity.

[3] = 28-day SC study safety endpoints (clinical observations, ophthalmology); assay type: in vivo, cynomolgus monkey
Description: Male and female cynomolgus monkeys were divided into four groups (Groups 1 to 4). Groups 1 and 4 consisted of five males and five females each and Groups 2 and 3 consisted of three males and three females each. Animals were dosed via SC injection once daily for 28 consecutive days. Group 1 animals received the control article, 0.9% sodium chloride injection, USP (saline). Group 2, 3, and 4 animals received the test article, compound of Formula IIa, at dose levels of 2, 5, and 15 mg/kg/day, respectively. Three males and three females from Groups 1 to 3, and three males and one female from Group 4 were necropsied on Day 29 (terminal necropsy). Two males and two females from Groups 1 and 4 were necropsied on Day 42 (recovery necropsy), after a 13-day treatment-free period. […] At termination, gross observations and organ weights were recorded, and eye/optic nerve tissue samples were collected for microscopic evaluation and biodistribution assays. […]
Body weight. Body weights were measured twice during acclimation (including Day −1), then weekly during the in-life phase (Days 7, 14, 21, 28, 35, and 41) and on the day of corresponding necropsy (Day 29 or Day 42). […]

In the case of Cc1cc(O)cc(C)c1C[C@H](NC(=O)[C@H](N)CCCNC(=N)N)C(=O)N[C@@H](CCCCN)c1nc(Cc2ccccc2)no1.Cl.Cl.Cl [Formula IIa, (R)-2-amino-N—((S)-1-(((S)-5-amino-1-(3-benzyl-1,2,4-oxadiazol-5-yl)pentyl)amino)-3-(4-hydroxy-2,6-dimethylphenyl)-1-oxopropan-2-yl)-5-guanidinopentanamide], the “expression of complement regulatory genes including CFHR2” value ([1]; FIG. 8S) is reported as “increase expression”, the “expression of complement component genes (C1R, C3, C4A) increased by nitration of ECM” value ([1]; FIGS. 8L-8P) is reported as “reverse this trend” and the “expression of mitochondrial-related genes, such as CYP24A1 and GLS” value ([1]; FIGS. 8W-8Z) is reported as “altered the expression”. For the same molecule, the “mitochondrial function (ATP production; basal respiration; maximal respiration; spare respiratory capacity)” value [2] was “efficacy in improving mitochondrial function”, the tolerability of dosing ([3]; SC 15 mg/kg/day (Group 4), two females necropsied early on Days 25 and 27) was “not well tolerated” and the ophthalmology examination findings ([3]; SC 2, 5, 15 mg/kg/day, Day 24 (Week 4)) was “no compound of Formula IIa-related findings”.
